# According to patent US20070037752A1, “Novel alanyl-amino peptidase inhibitors for functionally influencing different cells and treating immunological, inflammatory, neuronal, and other diseases” (priority 2003, published 2007):
# Biological target: alanyl aminopeptidases (APN) (Homo sapiens, UniProt P15144)
# Assay: Inhibition of alanyl aminopeptidase enzymatic activity, fluorogenic substrate (Ala)2-rhodamine 110
# Format: biochemical
# Conditions: Table 4, starred values = ID50; read-out: ID50 APN (values marked with *)
# Experimental: The inhibition characteristics measured are referred to as IC-50 values or ID50 values (the latter marked with “*”) for said enzyme. The enzymatic activity was determined by means of the fluorogenic substrate/product (Ala)2-rhodamine 110.
# Chain of alanyl aminopeptidases (APN) (P15144 whole entry, species assumed): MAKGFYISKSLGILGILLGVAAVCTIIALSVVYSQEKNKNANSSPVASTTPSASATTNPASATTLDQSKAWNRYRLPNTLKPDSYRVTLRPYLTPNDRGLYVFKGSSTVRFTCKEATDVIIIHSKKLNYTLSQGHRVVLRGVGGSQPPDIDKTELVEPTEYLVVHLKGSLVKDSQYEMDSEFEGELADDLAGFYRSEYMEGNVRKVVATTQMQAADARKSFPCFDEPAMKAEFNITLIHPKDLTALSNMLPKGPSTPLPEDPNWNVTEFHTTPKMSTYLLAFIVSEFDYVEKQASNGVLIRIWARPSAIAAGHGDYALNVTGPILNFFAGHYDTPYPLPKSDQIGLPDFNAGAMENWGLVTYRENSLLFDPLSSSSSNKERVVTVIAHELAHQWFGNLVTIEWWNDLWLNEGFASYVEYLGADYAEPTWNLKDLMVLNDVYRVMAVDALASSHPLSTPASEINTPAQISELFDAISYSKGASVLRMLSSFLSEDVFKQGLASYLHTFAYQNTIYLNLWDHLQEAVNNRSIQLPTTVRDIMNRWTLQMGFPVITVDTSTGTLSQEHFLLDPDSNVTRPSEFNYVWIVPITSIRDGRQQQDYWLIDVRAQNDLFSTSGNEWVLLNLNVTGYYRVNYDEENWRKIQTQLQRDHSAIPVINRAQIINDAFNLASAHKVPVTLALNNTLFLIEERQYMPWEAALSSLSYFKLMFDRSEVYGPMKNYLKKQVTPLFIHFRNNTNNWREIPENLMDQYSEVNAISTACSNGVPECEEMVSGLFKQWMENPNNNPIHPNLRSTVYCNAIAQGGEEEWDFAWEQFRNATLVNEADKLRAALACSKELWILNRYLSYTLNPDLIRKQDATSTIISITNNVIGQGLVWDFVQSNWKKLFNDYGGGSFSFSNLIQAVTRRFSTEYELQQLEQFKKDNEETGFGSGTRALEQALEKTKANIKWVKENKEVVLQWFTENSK
row,Compound,IC50
1,CC(=O)Nc1cccc(C(=O)N/N=C/c2ccc(C)o2)c1 [A4.154],63.1 µM
2,COc1ccc(C(=O)NCC(=O)N/N=C/c2ccco2)cc1OC [A4.156],64.9 µM
3,COc1ccc(CSCC(=O)N/N=C/c2ccco2)cc1 [A4.157],66 µM
4,Cc1cccc(C(=O)Nc2ccc(C(=O)N/N=C/c3ccco3)cc2)c1 [A4.158],67.1 µM
5,O=C(Cc1ccccc1)NCC(=O)N/N=C/c1ccco1 [A4.161],73.1 µM
6,O=C(N/N=C/c1ccco1)c1cc(-c2ccccc2Cl)n[nH]1 [A4.163],75.8 µM
7,COc1ccc(OCC(=O)N/N=C/c2c(Br)cc(Br)c(O)c2Br)cc1 [A4.164],76.4 µM
8,Cn1c(=O)c2c(ncn2CC(=O)N/N=C/C=C\c2ccco2)n(C)c1=O [A4.166],79.8 µM
9,COc1ccc(/C=N/NC(=O)CNC(=O)c2cccc(F)c2)cc1[N+](=O)[O-] [A4.167],80.4 µM
10,Cc1ccc(OCC(=O)N/N=C\c2ccco2)c(C)c1 [A4.168],81.8 µM
11,O=C(CNC(=O)c1ccccc1Br)N/N=C/c1ccco1 [A4.171],91.2 µM
12,O=C(CNC(=O)c1ccccc1O)N/N=C/c1ccco1 [A4.173],98.8 µM
13,Cn1cccc1CC(=O)N/N=C\c1ccco1 [A4.174],113 µM
14,O=C(N/N=C\C=C\c1ccco1)c1cc(-c2cccs2)n[nH]1 [A4.175],132 µM
15,CC(C(=O)N/N=C/c1ccco1)n1nnc2ccccc21 (stereo not drawn) [A4.176],146 µM
16,O=C(CNC(=O)c1cccc(F)c1)N/N=C/c1ccco1 [A4.180],155 µM
17,C/C(=N\NC(=O)c1cc(-c2ccco2)n[nH]1)c1ccco1 [A4.181],161 µM
18,COc1cc(C(=O)NCC(=O)N/N=C\c2ccc(C)o2)cc(OC)c1OC [A4.182],161 µM
19,COc1cccc(C(=O)NCC(=O)N/N=C/c2ccc([N+](=O)[O-])o2)c1 [A4.183],222 µM
20,O=C(N/N=C/c1ccco1)c1ccc(NCc2ccccc2)cc1 [A4.184],294 µM
21,O=C(N/N=C/c1ccco1)c1ccc([N+](=O)[O-])cc1 [A4.185],305 µM
22,C/C(=N\NC(=O)c1ccn(C)n1)c1ccco1 [A4.186],323 µM
23,C/C(=N\NC(=O)COc1ccc(C)cc1[N+](=O)[O-])c1ccco1 [A4.187],422 µM

# Same assay, conditions: Table 4, unstarred values; read-out: IC50APN
row,Compound,IC50
1,O=C(N/N=C/C=C\c1ccco1)c1cccs1 [A4.151],62.7 µM
2,O=C(N/N=C/c1ccco1)c1cccc(Br)c1 [A4.152],62.7 µM
3,Cc1ccc(/C=N/NC(=O)COc2cccc(Cl)c2)o1 [A4.153],62.7 µM
4,O=C(N/N=C/c1ccco1)c1ccc(F)cc1 [A4.159],68.9 µM
5,Cc1ccc(S(=O)(=O)N2CCC(C(=O)N/N=C/c3ccco3)CC2)cc1 [A4.160],69.3 µM
6,O=C(CCc1ccccc1)N/N=C/c1ccco1 [A4.162],74.7 µM
7,O=C(CCn1nnc2ccccc21)N/N=C/c1ccco1 [A4.169],82.9 µM
8,O=C(COc1ccccc1)N/N=C/c1ccco1 [A4.170],87.5 µM
9,O=C(N/N=C/c1ccco1)c1ccccc1[N+](=O)[O-] [A4.172],91.2 µM
10,COc1cccc(/C=N/NC(=O)c2ccn(C)n2)c1O [A4.177],142 µM
11,O=C(Cc1cccs1)N/N=C\c1ccco1 [A4.178],143 µM
12,C/C(=N\NC(=O)c1ccco1)c1ccc(C)o1 [A4.179],152 µM

# Same assay, conditions: Table 5, starred values = ID50; read-out: ID50 APN (values marked with *)
row,Compound,IC50
1,CC(C)Oc1ccc(/C=N/CCC2(c3ccccc3)CCOC(C)(C)C2)cc1 (stereo not drawn) [A5.007],197 µM

# Same assay, conditions: Table 5, unstarred values; read-out: IC50APN
row,Compound,IC50
1,O=C(Nc1cccc(/N=C/c2cc(/N=N\c3ccccc3Cl)ccc2O)c1)c1ccco1 [A5.001],3.6 µM
2,O=C(Nc1cccc(/N=C/c2cc(Br)cc(Br)c2O)c1)c1ccco1 [A5.003],8.2 µM
3,CCCOc1[nH]c(/N=C/c2ccccc2)c(C#N)c1C#N [A5.004],20 µM
4,Oc1ccc(Cl)cc1/N=C/c1ccc(-c2ccc(F)cc2)o1 [A5.005],77.3 µM
5,CC1(C)CC(CC/N=C/c2ccccc2)(Cc2ccccc2)CCO1 (stereo not drawn) [A5.006],93.6 µM

# Same assay, conditions: Table 6; read-out: IC50APN
row,Compound,IC50
1,COc1ccc(C(=O)Nc2ccc(S(=O)(=O)N3CCCCC3)cc2)cc1 [A6.001],8.4 µM
2,CC1CCCN(S(=O)(=O)c2ccc(NC(=O)/C=C/c3ccco3)cc2)C1 (stereo not drawn) [A6.002],8.4 µM
3,O=C(CS(=O)(=O)c1ccc(Cl)cc1)NO [A6.003],11.5 µM
4,NNC(=O)c1ccc(NS(=O)(=O)c2cccs2)cc1 [A6.004],11.8 µM
5,Cc1ccc(S(=O)(=O)CNC(=S)c2ccc3ccccc3c2)cc1 [A6.005],11.8 µM
6,N/C(=N/OS(=O)(=O)c1ccc(C(F)(F)F)cc1)C1CSCCS1 (stereo not drawn) [A6.006],13.4 µM
7,O=[N+](O)CC(c1ccccc1)P(=O)(c1ccccc1)c1ccccc1 (stereo not drawn) [A6.007],16.3 µM
8,Cc1ccc(S(=O)(=O)N(Cc2ccc(Cl)cc2)c2ccccc2C(=O)N/N=C/c2ccco2)cc1 [A6.008],16.4 µM
9,Cc1ccccc1S(=O)(=O)Nc1cccc(C(=O)N/N=C/c2ccco2)c1 [A6.009],19.2 µM
10,CCOC(=O)c1c(C)oc2c1c1c(c3ccccc32)OCN(C2CCS(=O)(=O)C2)C1 (stereo not drawn) [A6.010],22.3 µM
11,Cc1ccc(S(=O)(=O)CNC(=S)c2ccc(Cl)c(Cl)c2)cc1 [A6.011],18 µM
12,O=C(Nc1ccc(N=Nc2ccccc2)cc1)c1ccc(S(=O)(=O)N2CCCC2)cc1 [A6.012],21.6 µM
13,Cc1ccc(/C=C/C(=O)Nc2ccc(S(=O)(=O)N3CCCC3)cc2)o1 [A6.013],24.8 µM
14,CC1CCN(S(=O)(=O)c2ccc3c(c2)C(Cl)(Cl)C(=O)N3)CC1 [A6.015],37.2 µM
15,O=C(CNS(=O)(=O)c1ccc2c(c1)OCCO2)N/N=C/c1ccco1 [A6.016],55.6 µM
16,Cc1ccc(S(=O)(=O)N2CCC(C(=O)N/N=C/c3ccco3)CC2)cc1 [A6.017],69.3 µM

# Same assay, conditions: Table 7; read-out: IC50APN
row,Compound,IC50
1,CN/C=C1\C=C(c2ccccc2)OC1=S [A7.001],6 µM
2,CCc1cccc(CC)c1NC(=S)N/N=C1\C(=O)N(CN2CC(C)CC(C)C2)c2ccccc21 (stereo not drawn) [A7.002],6.7 µM
3,Cc1ccc(S(=O)(=O)CNC(=S)c2ccc3ccccc3c2)cc1 [A7.004],11.8 µM
4,O=C(O)CSCC1NC(=S)N(c2ccccc2)C1=O (stereo not drawn) [A7.005],12 µM
5,O=C1C(Cc2c[nH]c3ccccc23)NC(=S)N1c1ccccc1 (stereo not drawn) [A7.006],12.4 µM
6,Cc1cccc(C)c1NC(=S)NC(=O)c1cccs1 [A7.007],12.9 µM
7,CSCCC1NC(=S)N(Cc2ccccc2)C1=O (stereo not drawn) [A7.008],14.1 µM
8,Cc1ccc(S(=O)(=O)CNC(=S)c2ccc(Cl)c(Cl)c2)cc1 [A7.010],18 µM
9,O=C1C(Cc2ccc(O)cc2)NC(=S)N1C1CCCCC1 (stereo not drawn) [A7.011],21.3 µM
10,O=C1C(Cc2ccc3[nH]ccc3c2)NC(=S)N1c1ccccc1 (stereo not drawn) [A7.012],36.9 µM

# Same assay, conditions: Table 8, starred values = ID50; read-out: ID50 APN (values marked with *)
row,Compound,IC50
1,CCOC(=O)c1ncn(C(=O)OC)c1N [A8.001],0.9 µM
2,O=C(O)CC1S/C(=N/N=C/c2ccco2)NC1=O (stereo not drawn) [A8.031],48.1 µM
3,Cc1ccc(Cn2c(SCCC(=O)O)nc3c2c(=O)[nH]c(=O)n3C)cc1 [A8.033],53.2 µM

# Same assay, conditions: Table 8, unstarred values; read-out: IC50APN
row,Compound,IC50
1,C/C(Cn1nnc([N+](=O)[O-])n1)=N/NC(=O)COc1ccccc1[N+](=O)[O-] [A8.002],3.4 µM
2,COC(=O)C1=C(C(=O)OC)C(c2cc(Br)ccc2O)c2sc(O)nc2S1 (stereo not drawn) [A8.003],4.7 µM
3,CCc1cccc(CC)c1NC(=S)N/N=C1\C(=O)N(CN2CC(C)CC(C)C2)c2ccccc21 (stereo not drawn) [A8.004],6.7 µM
4,CCOC(=O)N1CCc2c(sc(NC(=O)c3ccc(F)cc3)c2C(=O)Nc2ccc(Br)cc2)C1 [A8.005],7.3 µM
5,CC1SC(N/N=C/c2ccco2)=NC1=O (stereo not drawn) [A8.006],8 µM
6,CC(C)CC1CC(=S)C(C2CCCCC2)C1=O (stereo not drawn) [A8.007],8 µM
7,CC(C)(C)OC(=O)N/N=C\C=C\c1ccco1 [A8.008],10.8 µM
8,O=C1C(Cc2c[nH]c3ccccc23)NC(=S)N1c1ccccc1 (stereo not drawn) [A8.009],12.4 µM
9,Cc1cccc(C)c1NC(=S)NC(=O)c1cccs1 [A8.010],12.9 µM
10,COC(=O)N/N=C(C)\C=C\c1ccco1 [A8.011],13.5 µM
11,CSCCC1NC(=S)N(Cc2ccccc2)C1=O (stereo not drawn) [A8.012],14.1 µM
12,Cn1c(=O)c2c(nc3sccn32)n(C)c1=O [A8.013],14.3 µM
13,CN(/N=C/c1sc(=O)[nH]c1Cl)c1ccccc1 [A8.014],14.4 µM
14,Cc1cccc(C)c1Nc1c(-c2ccccc2NC(=O)Nc2ccccc2)nc2c(C(=O)NCc3ccc(F)cc3)cccn12 [A8.015],14.9 µM
15,O=C1C(Cc2ccc3[nH]ccc3c2)NC(=S)N1c1ccccc1 (stereo not drawn) [A8.016],14.9 µM
16,CCOC(=O)CCCCC(=O)c1c(C)n(C(=O)c2ccc(N3C(=O)CCC3=O)cc2)c(=O)n1C(=O)c1ccc(N2C(=O)CCC2=O)cc1 [A8.017],15.6 µM
17,Cc1cc(=O)[nH]c(N/N=C/c2ccco2)n1 [A8.018],18.2 µM
18,O=C1C(Cc2ccc(O)cc2)NC(=S)N1C1CCCCC1 (stereo not drawn) [A8.019],21.3 µM
19,O=C1C(Cc2ccccc2)NC(=S)N1c1ccccc1 (stereo not drawn) [A8.020],26.1 µM
20,Cn1nc(-c2cccs2)nc2c(=O)n(C)c(=O)nc1-2 [A8.021],25 µM
21,Cc1ccc(/C=N/NC2=NC(=O)CS2)o1 [A8.022],26.4 µM
22,Cn1c(=O)[nH]c2nnc(-c3cccs3)nc2c1=O [A8.023],22.6 µM
23,Cc1ccc(Cn2c(SCCC(=O)O)nc3c2c(=O)n(C)c(=O)n3C)cc1 [A8.025],28 µM
24,C/C(=N\N=C1\SC(CC(=O)O)C(=O)N1c1ccccc1)c1ccco1 (stereo not drawn) [A8.026],28.6 µM
25,Cc1cccc(C)c1Nc1c(-c2ccccc2NC(=O)Nc2ccc(OC(F)(F)F)cc2)nc2c(C(=O)NCC(C)C)cccn12 [A8.027],31.4 µM
26,O=C1C(Cc2ccc3[nH]ccc3c2)NC(=S)N1c1ccccc1 (stereo not drawn) [A8.029],36.9 µM
27,COc1cc(C)[n+](OC(=O)N(C)C)c(C)c1 [A8.030],42.4 µM
28,NC(=S)N/N=C/c1ccco1 [A8.032],50 µM
29,CC1=NC(N)=NC(C)(C)N1c1c(Cl)cccc1Cl [A8.034],59.8 µM
